Results published in PubChem BioAssay (NCI).
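Here, GI50 denotes the concentration required for 50% inhibition of growth. TGI marks complete inhibition of growth.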

How the values were obtained:
Assay in all cases: NCI-60 cell line screen, 384-well format
[1] = system: 786-0 renal
[2] = system: A498 renal
[3] = system: A549 NSCLC
[4] = system: ACHN renal
[5] = system: BT-549 breast
[6] = system: CAKI-1 renal
[7] = system: CCRF-CEM leukemia
[8] = system: COLO 205 colon
[9] = system: DU-145 prostate
[10] = system: EKVX NSCLC
[11] = system: HCC-2998 colon
[12] = system: HCT-116 colon
[13] = system: HCT-15 colon
[14] = system: HL-60(TB) leukemia
[15] = system: HOP-62 NSCLC
[16] = system: HOP-92 NSCLC
[17] = system: HT29 colon
[18] = system: IGROV1 ovarian
[19] = system: K-562 leukemia
[20] = system: KM12 colon
[21] = system: LOX IMVI melanoma
[22] = system: M14 melanoma
[23] = system: MALME-3M melanoma
[24] = system: MCF7 breast
[25] = system: MDA-MB-231 breast
[26] = system: MDA-MB-435 melanoma
[27] = system: MDA-MB-468 breast
[28] = system: MOLT-4 leukemia
[29] = system: NCI-H226 lung
[30] = system: NCI-H23 lung
[31] = system: NCI-H322M lung
[32] = system: NCI-H460 NSCLC
[33] = system: NCI-H522 lung
[34] = system: NCI/ADR-RES ovarian
[35] = system: OVCAR-3 ovarian
[36] = system: OVCAR-4 ovarian
[37] = system: OVCAR-5 ovarian
[38] = system: OVCAR-8 ovarian
[39] = system: PC-3 prostate
[40] = system: RPMI-8226 leukemia
[41] = system: RXF 393 renal
[42] = system: SF-268 CNS
[43] = system: SF-295 CNS
[44] = system: SF-539 CNS
[45] = system: SK-MEL-2 melanoma
[46] = system: SK-MEL-28 melanoma
[47] = system: SK-MEL-5 melanoma
[48] = system: SK-OV-3 ovarian
[49] = system: SN12C renal
[50] = system: SNB-19 CNS
[51] = system: SNB-75 CNS
[52] = system: SR leukemia
[53] = system: SW-620 colon
[54] = system: T-47D breast
[55] = system: TK-10 renal
[56] = system: U251 glioblastoma
[57] = system: UACC-257 melanoma
[58] = system: UACC-62 melanoma
[59] = system: UO-31 renal

For `CC(C)(C[C@H]1CN(S(=O)(=O)c2cccc(C(F)(F)F)c2)c2cc(-c3cc(F)cc(OC(F)F)c3)ccc2O1)C(=O)O`, the GI50 [1] was 9.51 µM, the TGI [1] was 22.8 µM and the GI50 [2] was 4.35 µM. The TGI [2] was 15.5 µM, the GI50 [3] was 4.28 µM and the TGI [3] was 15.5 µM. For the same compound, the GI50 [4] was 13.4 µM, the TGI [4] was 26.7 µM and the GI50 [5] was 2800 nM. For the same compound, the TGI [5] was 9.11 µM, the GI50 [6] was 6.92 µM and the TGI [6] was 19 µM. The GI50 [7] was 6.52 µM, the TGI [7] was 18.4 µM and the GI50 [8] was 5.83 µM. The TGI [8] was 15.3 µM, the GI50 [9] was 10.1 µM and the TGI [9] was 21.9 µM. For the same compound, the GI50 [10] was 10.7 µM, the TGI [10] was 22.8 µM and the GI50 [11] was 6.63 µM. It also gave a TGI [11] of 20.7 µM, a GI50 [12] of 7.93 µM and a TGI [12] of 20.5 µM. It also gave a GI50 [13] of 4.15 µM, a TGI [13] of 14.1 µM and a GI50 [14] of 2740 nM. It also gave a TGI [14] of 4.91 µM, a GI50 [15] of 4.81 µM and a TGI [15] of 16.7 µM. For the same compound, the GI50 [16] was 7.09 µM, the TGI [16] was 20 µM and the GI50 [17] was 3.97 µM. It also gave a TGI [17] of 13.6 µM, a GI50 [18] of 7.94 µM and a TGI [18] of 20.9 µM. For the same compound, the GI50 [19] was 3.18 µM, the TGI [19] was 12.1 µM and the GI50 [20] was 4.06 µM. For the same compound, the TGI [20] was 14.4 µM, the GI50 [21] was 12.8 µM and the TGI [21] was 25.4 µM. It also gave a GI50 [22] of 4.53 µM, a TGI [22] of 15.3 µM and a GI50 [23] of 11.5 µM. For the same compound, the TGI [23] was 24.5 µM, the GI50 [24] was 4.82 µM and the TGI [24] was 17.2 µM. For the same compound, the GI50 [25] was 8.82 µM, the TGI [25] was 21.4 µM and the GI50 [26] was 2040 nM. The TGI [26] was 4.48 µM, the GI50 [27] was 2660 nM and the TGI [27] was 7.31 µM. For the same compound, the GI50 [28] was 3.11 µM, the TGI [28] was 8.3 µM and the GI50 [29] was 8.64 µM. It also gave a TGI [29] of 22 µM, a GI50 [30] of 3.38 µM and a TGI [30] of 10.7 µM. The GI50 [31] was 12.6 µM, the TGI [31] was 25.6 µM and the GI50 [32] was 4.04 µM. For the same compound, the TGI [32] was 13 µM, the GI50 [33] was 2660 nM and the TGI [33] was 7.35 µM. It also gave a GI50 [34] of 2520 nM, a TGI [34] of 7.17 µM and a GI50 [35] of 2460 nM. For the same compound, the TGI [35] was 7.45 µM, the GI50 [36] was 9.12 µM and the TGI [36] was 21.5 µM. It also gave a GI50 [37] of 16.3 µM, a TGI [37] of 29.9 µM and a GI50 [38] of 9.79 µM. The TGI [38] was 22.1 µM, the GI50 [39] was 8.44 µM and the TGI [39] was 20.8 µM. The GI50 [40] was 2780 nM, the TGI [40] was 6.15 µM and the GI50 [41] was 4.02 µM. It also gave a TGI [41] of 11.1 µM, a GI50 [42] of 9.85 µM and a TGI [42] of 22.6 µM. The GI50 [43] was 3.02 µM, the TGI [43] was 10.3 µM and the GI50 [44] was 6 µM. The TGI [44] was 18.4 µM, the GI50 [45] was 2730 nM and the TGI [45] was 7.34 µM. It also gave a GI50 [46] of 7.37 µM, a TGI [46] of 20.1 µM and a GI50 [47] of 3.86 µM. For the same compound, the TGI [47] was 13.5 µM, the GI50 [48] was 9.09 µM and the TGI [48] was 21.4 µM. It also gave a GI50 [49] of 10.3 µM, a TGI [49] of 22.4 µM and a GI50 [50] of 8.54 µM. For the same compound, the TGI [50] was 20.5 µM, the GI50 [51] was 17.4 µM and the TGI [51] was 31.2 µM. The GI50 [52] was 1510 nM, the TGI [52] was 2900 nM and the GI50 [53] was 2920 nM. It also gave a TGI [53] of 7.59 µM, a GI50 [54] of 5.89 µM and a TGI [54] of 18.9 µM. It also gave a GI50 [55] of 10.6 µM, a TGI [55] of 23.1 µM and a GI50 [56] of 7.65 µM. The TGI [56] was 20.2 µM, the GI50 [57] was 8.84 µM and the TGI [57] was 23.2 µM. It also gave a GI50 [58] of 3.84 µM, a TGI [58] of 13.6 µM and a GI50 [59] of 10.5 µM. The TGI [59] was 22.3 µM.
